The target in assay [1] is T1, HEK-293 cells expressing a G810R mutant RET Kif5b-RET fusion protein (Homo sapiens, UniProt P07949, G810R).
T1 construct: KIF5B (N-terminal portion incl. coiled-coil); expressed in transfected cells; host or cells: HEK-293; the other entry of the earlier key: KIF5B (P33176, Kinesin-1 heavy chain)
T1 sequence (P07949 713-1063 G810R limits assumed): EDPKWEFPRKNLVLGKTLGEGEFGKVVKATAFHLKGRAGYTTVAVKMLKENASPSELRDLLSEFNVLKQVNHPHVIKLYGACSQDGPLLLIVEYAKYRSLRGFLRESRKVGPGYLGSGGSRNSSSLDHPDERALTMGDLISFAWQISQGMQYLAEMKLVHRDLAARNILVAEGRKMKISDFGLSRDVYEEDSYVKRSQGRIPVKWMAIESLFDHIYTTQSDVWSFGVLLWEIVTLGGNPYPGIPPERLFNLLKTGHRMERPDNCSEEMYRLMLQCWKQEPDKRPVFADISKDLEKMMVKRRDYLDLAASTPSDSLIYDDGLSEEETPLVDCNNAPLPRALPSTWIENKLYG
In words: RET G810R Mutant Cell Assay (phospho-RET Tyr1062). Type of assay: cell-based. The conditions noted are these: HEK-293 Kif5b-RET G810R, 1 hour incubation, phospho-RET normalized to GAPDH. The gist of the method:
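Signals came from in-cell immunostaining of fixed, methanol-permeabilized HEK-293 fusion-expressing cells exposed 1 h to compound in DMEM with 0.5% DMSO.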

The target of a further assay is RET kinase V804M (Homo sapiens, UniProt P07949, V804M). In words: RET Enzyme Assay (CisBio HTRF KinEASE-TK), V804M. Type of assay: biochemical. The settings on record: read-out: RET V804M Enz FRET IC50. On the technique in general: In TR-FRET formats the signal depends on donor and acceptor labels being close together.
Chain of RET kinase V804M (P07949 29-1114 V804M): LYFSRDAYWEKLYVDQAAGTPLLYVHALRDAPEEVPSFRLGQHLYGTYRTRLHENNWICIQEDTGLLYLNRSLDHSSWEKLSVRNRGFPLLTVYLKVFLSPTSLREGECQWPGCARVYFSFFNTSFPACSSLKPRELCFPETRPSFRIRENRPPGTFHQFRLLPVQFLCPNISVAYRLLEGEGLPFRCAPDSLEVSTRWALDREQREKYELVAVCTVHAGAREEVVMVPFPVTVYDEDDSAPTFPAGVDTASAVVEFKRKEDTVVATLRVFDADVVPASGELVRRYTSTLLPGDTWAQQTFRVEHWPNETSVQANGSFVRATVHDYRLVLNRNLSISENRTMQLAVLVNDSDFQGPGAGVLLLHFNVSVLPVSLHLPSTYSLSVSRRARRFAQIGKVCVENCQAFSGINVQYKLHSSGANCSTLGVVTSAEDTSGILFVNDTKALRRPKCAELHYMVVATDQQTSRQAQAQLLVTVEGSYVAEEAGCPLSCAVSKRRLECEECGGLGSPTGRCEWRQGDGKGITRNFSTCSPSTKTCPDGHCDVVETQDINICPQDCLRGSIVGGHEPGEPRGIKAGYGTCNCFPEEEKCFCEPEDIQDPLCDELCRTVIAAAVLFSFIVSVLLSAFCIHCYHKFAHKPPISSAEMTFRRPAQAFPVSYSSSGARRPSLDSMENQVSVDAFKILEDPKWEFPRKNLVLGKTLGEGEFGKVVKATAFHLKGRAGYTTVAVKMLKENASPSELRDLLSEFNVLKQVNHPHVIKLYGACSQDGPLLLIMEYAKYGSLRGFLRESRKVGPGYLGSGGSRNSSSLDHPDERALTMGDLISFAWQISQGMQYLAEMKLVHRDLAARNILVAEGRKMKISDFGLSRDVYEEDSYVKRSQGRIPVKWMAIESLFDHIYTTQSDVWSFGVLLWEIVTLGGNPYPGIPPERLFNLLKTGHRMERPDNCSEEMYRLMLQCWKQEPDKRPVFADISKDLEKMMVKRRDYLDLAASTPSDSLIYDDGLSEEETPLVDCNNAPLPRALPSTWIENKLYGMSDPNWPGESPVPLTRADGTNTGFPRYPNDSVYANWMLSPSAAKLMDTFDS
The target of a further assay is G810S mutant RET kinase (Homo sapiens, UniProt P07949, G810S). The experiment in a line: biochemical.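 Note: HTRF KinEASE-TK kinase assay with recombinant enzyme, 1 h at 22 °C, dual-wavelength ratiometric read-out, percent of control (DMSO-only = 100, pre-quenched reaction = 0).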
Chain of G810S mutant RET kinase (P07949 29-1114 G810S): as the sequence (P07949 29-1114 V804M) above, with M776V, G782S counted along it
A further assay addresses RET kinase Wild Type (Homo sapiens, UniProt P07949). The experiment in a line: biochemical.
Assay [2] concerns the target T2, HEK-293 cells expressing a G810S mutant RET Kif5b-RET fusion protein (Homo sapiens, UniProt P07949, G810S).
T2 construct: KIF5B (N-terminal portion incl. coiled-coil); expressed in transfected cells; host or cells: HEK-293
T2 sequence (P07949 713-1063 G810S limits assumed): T1 sequence (P07949 713-1063 G810R limits assumed) with R98S
In words: RET G810S Mutant Cell Assay (phospho-RET Tyr1062). Type of assay: cell-based. The settings on record: HEK-293 Kif5b-RET G810S, 1 hour incubation, phospho-RET normalized to GAPDH. The procedure:
The cellular potency of compounds inhibiting RET kinase were determined in HEK-293 cells expressing a G810R or G810S mutant RET Kif5b-RET fusion protein. Briefly, HEK-293 cells expressing a G810R or G810S mutant RET Kif5b-RET fusion protein were plated at 50K cells/well in 96 well poly-D-Lysine coated plates the day prior to the assay. The cells were incubated for 1 hour with test compound in DMEM (Dulbecco's Modified Eagle Medium) at a final DMSO concentration of 0.5%. […] After 1 hour the media was removed, the cells were fixed with 3.8% formaldehyde for 20 min, washed with PBS, and permeabilized for 10 min with 100% methanol. The plates were then washed with PBS-0.05% Tween20, and blocked with LI-COR Blocking solution (LI-COR Catalog No. 927-40000) for 1 hour. Plates were washed with PBS-0.05% Tween20, then incubated with anti-phospho-RET (Tyr1062) (Santa Cruz Catalog No. sc-20252-R) antibody and anti-GAPDH (Millipore Catalog No. MAB374) antibody for 2 hours. The plates were washed with PBS-0.05% Tween20, and incubated with anti-rabbit 680 (Molecular Probes Catalog No. A21109) and anti-mouse 800 (LI-COR Catalog No. 926-32210) secondary antibodies for 1 hour. All antibodies were diluted in LI-COR Block containing 0.05% Tween. The plates were washed with PBS-0.05% Tween20,100 μL PBS was added to each well, and the plates were read on a LI-COR Aerius fluorescent plate reader. The phospho-RET signal was normalized to the GAPDH signal. […] The POC values are fit to a 4 parameter logistic curve. The IC50 value is the point where the curve crosses 50 POC.

The target in a further assay is G810R mutant RET kinase (Homo sapiens, UniProt P07949, G810R). In words: biochemical.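 Note: HTRF KinEASE-TK enzymatic assay with 1 nM recombinant RET G810R, 1 h at 22 °C, dual-wavelength ratiometric readout, 100% control without compound, 0% from pre-quenched reactions.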
Chain of G810R mutant RET kinase (P07949 29-1114 G810R): as the sequence (P07949 29-1114 V804M) above, with M776V, G782R counted along it
The target of assay [3] is T3, HEK-293 cells expressing a Kif5b-RET fusion protein (Homo sapiens, UniProt P07949).
T3 construct: KIF5B (N-terminal portion incl. coiled-coil); expressed in transfected cells; host or cells: HEK-293; the other entry of the earlier key: KIF5B (P33176, Kinesin-1 heavy chain)
T3 sequence (P07949 713-1063 limits assumed): T1 sequence (P07949 713-1063 G810R limits assumed) with R98G
In words: RET Cell Assay (phospho-RET Tyr1062). Type of assay: cell-based. The conditions noted are these: HEK-293 Kif5b-RET, 1 hour incubation, phospho-RET normalized to GAPDH; read-out: KIF5B-RET pTYR1062 Cell IC50. The gist of the method: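 Phospho-RET (Tyr1062) to GAPDH ratio read by in-cell fluorescent immunodetection after 1 hour compound exposure in DMEM, 0.5% DMSO. Cells: HEK-293 carrying Kif5b-RET fusion. POC data fit to a 4-parameter logistic curve, IC50 taken at 50 POC.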

Where a chain is given by its changes, count along the chain named.

What is called IC50 is the midpoint of a concentration-inhibition curve.

Chain of RET kinase Wild Type (P07949 29-1114): as the sequence (P07949 29-1114 V804M) above, with M776V counted along it
Procedure for RET kinase V804M: The potency of compounds inhibiting several different RET kinase forms (Wild Type, V804M, G810R, & G810S) were determined using CisBio's HTRF® KinEASE™-TK assay technology. […] After a 1 hour incubation at 22° C., the extent of reaction was determined using a PerkinElmer EnVision multimode plate reader via HTRF dual wavelength detection, and the percent of control (POC) was calculated using a ratiometric emission factor. One hundred POC was determined using DMSO only samples (no compound present), and 0 POC was determined using pre-quenched control reactions.

Turning to `CNC(=O)c1ccc2c(Cl)c3n(c2c1)C(=O)NCc1c-3c2c(N)ncnc2n1C(C)C` [Example 74, 1-Amino-14-chloro-5-isopropyl-N-methyl-8-oxo-5,6,7,8-tetrahydropyrimido[5″,4″:4′,5′]pyrrolo[2′,3′:5,6][1,3]diazepino[1,7-a]indole-11-carboxamide], the IC50 in assay [1] amounted to 2940 nM; at RET kinase V804M, 6000 nM; on G810S mutant RET kinase, 289 nM; at RET kinase Wild Type, 353 nM; in assay [2], 918 nM; against G810R mutant RET kinase, 2080 nM.
For the compound `COC(=O)c1ccc2c(Cl)c3n(c2c1)C(=O)NCc1c-3c2c(N)ncnc2n1C(C)C` [Example 75, Methyl 1-amino-14-chloro-5-isopropyl-8-oxo-5,6,7,8-tetrahydropyrimido[5″,4″:4′,5′]pyrrolo[2′,3′:5,6][1,3]diazepino[1,7-a]indole-11-carboxylate], the IC50 in assay [1] amounted to 170 nM; on RET kinase V804M it was 2030 nM; on G810S mutant RET kinase, 51 nM; against RET kinase Wild Type, 82 nM; in assay [2], 191 nM; against G810R mutant RET kinase, 421 nM.
Consider `Nc1ncnc2c1c1c(n2-c2ccccc2)CNC(=O)c2c-1noc2C1CC1` [Example 110, 11-amino-3-cyclopropyl-7-phenyl-6,7-dihydroisoxazolo[4,3-c]pyrimido[5′,4′:4,5]pyrrolo[3,2-e]azepin-4(5H)-one 2,2,2-trifluoroacetate], for which the IC50 came out at 537 nM in assay [1]; 1740 nM at RET kinase V804M; 284 nM at G810S mutant RET kinase; 411 nM on RET kinase Wild Type; 201 nM in assay [2]; 214 nM on G810R mutant RET kinase.
Regarding `Nc1ncnc2c1c1c(n2C2CCOC2)CCC(O)c2c-1noc2C1CC1` (stereo not drawn) [Example 121, 11-amino-3-cyclopropyl-7-(tetrahydrofuran-3-yl)-4,5,6,7-tetrahydro-isoxazolo[4″,3″:6′,7′]cyclohepta[1′,2′:4,5] pyrrolo[2,3-d]pyrimidin-4-ol], the IC50 in assay [3] worked out at 74 nM; at RET kinase V804M, 120 nM; against G810S mutant RET kinase, 84 nM; at RET kinase Wild Type it was 41 nM; in assay [2], 118 nM; at G810R mutant RET kinase, 87 nM.
In the case of `Nc1ncnc2c1c1c(n2C(CF)CF)CCC(O)c2c-1noc2C1CC1` (stereo not drawn) [Example 122, 11-amino-3-cyclopropyl-7-(1,3-difluoropropan-2-yl)-4,5,6,7-tetrahydro-isoxazolo[4″,3″:6′,7′]cyclohepta[1′,2′:4,5] pyrrolo[2,3-d]pyrimidin-4-ol], the IC50 was found to be 31 nM in assay [3]; 38 nM at RET kinase V804M; 26 nM on G810S mutant RET kinase; 14 nM against RET kinase Wild Type; 77 nM in assay [2]; 28 nM on G810R mutant RET kinase.
Regarding `Nc1ncnc2c1c1c(n2[C@@H]2C[C@@H](O)[C@@H](O)C2)CCC(O)c2c-1noc2C1CC1` (stereo partly drawn) [Example 130, (1r,2s,4s)-4-(11-amino-3-cyclopropyl-4-hydroxy-5,6-dihydroisoxazolo[4″,3″:6′,7′]cyclohepta[1′,2′:4,5]pyrrolo[2,3-d]pyrimidin-7(4H)-yl)cyclopentane-1,2-diol], the IC50 stood at 34 nM in assay [3]; 64 nM at RET kinase V804M; 32 nM at G810S mutant RET kinase; 12 nM on RET kinase Wild Type; 131 nM in assay [2]; 40 nM at G810R mutant RET kinase.
As to `Nc1ncnc2c1c1c(n2[C@H]2C[C@H](CO)C2)CCC(O)c2c-1noc2C1CC1` (stereo partly drawn) [Example 135, 11-Amino-3-cyclopropyl-7-((1r,3r)-3-(hydroxymethyl)cyclobutyl)-4,5,6,7-tetrahydroisoxazolo[4″,3″:6′,7′]cyclohepta[1′,2′:4,5]pyrrolo[2,3-d]pyrimidin-4-ol 2,2,2-trifluoroacetate], the IC50 in assay [3] came to 54 nM; on RET kinase V804M, 152 nM; at G810S mutant RET kinase it was 229 nM; on RET kinase Wild Type, 45 nM; in assay [2] it was 103 nM; at G810R mutant RET kinase, 150 nM.
Take `COC(=O)[C@H]1C[C@@H](n2c3c(c4c(N)ncnc42)-c2noc(C4CC4)c2C(O)CC3)C1` (stereo partly drawn) [Example 137, Methyl (1s,3s)-3-(11-amino-3-cyclopropyl-4-hydroxy-5,6-dihydroisoxazolo[4″,3″:6′,7′]cyclohepta[1′,2′:4,5]pyrrolo[2,3-d]pyrimidin-7(4H)-yl)cyclobutane-1-carboxylate 2,2,2-trifluoroacetate]: the IC50 in assay [3] was 67 nM; at RET kinase V804M, 60 nM; against G810S mutant RET kinase, 155 nM; against RET kinase Wild Type, 38 nM; in assay [2] it was 280 nM; against G810R mutant RET kinase, 52 nM.
Consider `Nc1ncnc2c1c1c(n2C2CCC2)CCC(O)c2c-1noc2C1CC1` (stereo not drawn) [Example 144, 11-Amino-7-cyclobutyl-3-cyclopropyl-4,5,6,7-tetrahydroisoxazolo[4″,3″:6′,7]cyclohepta[1′,2′:4,5]pyrrolo[2,3-d]pyrimidin-4-ol 2,2,2-trifluoroacetate], for which the IC50 in assay [3] is 40 nM; on RET kinase V804M, 57 nM; on G810S mutant RET kinase it was 101 nM; at RET kinase Wild Type, 24 nM; in assay [2], 177 nM; against G810R mutant RET kinase it was 61 nM.
On to `CC1(n2c3c(c4c(N)ncnc42)-c2noc(C4CC4)c2C(O)CC3)CC1` (stereo not drawn) [Example 149, 11-Amino-3-cyclopropyl-7-(1-methylcyclopropyl)-4,5,6,7-tetrahydroisoxazolo[4″,3″:6′,7′]cyclohepta[1′,2′:4,5]pyrrolo[2,3-d]pyrimidin-4-ol], for which the half-maximal inhibitory concentration (IC50) in assay [3] was 2 nM; on RET kinase V804M, 22 nM; at G810S mutant RET kinase it was 41 nM; on RET kinase Wild Type, 7 nM; in assay [2] it was 20 nM; against G810R mutant RET kinase, 70 nM.

Values taken from US11964988B2, “Fused heterocyclic compounds as RET kinase inhibitors” (ARRAY BIOPHARMA INC., priority 2018, dated 2024).
